From ChEMBL document CHEMBL1201862, “PubChem BioAssay data set” (2004) come the findings set out here.

Assay in all cases: growth of human tumour cells (NCI), 48 h
Assay [1] deals with HCT-15.
For assay [2], the system named is OVCAR-5.
Assay [3] has as its system NCI-H23.
For assay [4], the system named is NCI-H522.
Assay [5] has as its system ACHN.
Assay [6] deals with SK-MEL-28.
Assay [7] deals with Malme-3M.
For assay [8], the system named is MOLT-4.
The test system of assay [9] is IGROV-1.
Assay [10] relates to NCI-H460.
Assay [11] relates to SK-MEL-2.
Assay [12] deals with HCC 2998.
Assay [13] relates to UACC-62.
Assay [14] has as its system A549.
Assay [15] deals with RPMI-8226.
Assay [16] relates to MCF7.
Assay [17] concerns SW-620.
Assay [18] deals with OVCAR-8.
In assay [19] the test system is SR.
Assay [20] deals with M14.

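Protocol summary: plate cells (96-well), add compound at 5 concentrations, incubate 48 h, interpolate endpoints linearly. Here, GI50 denotes the concentration required for 50% inhibition of growth.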 Active and inactive are the calls of the source. Rule as the data show it: active = GI50 up to about 1.1 µM and inactive = higher.

With `CCOC(=O)Oc1cc2c(c(OC)c1OC)-c1ccc(OC)c(=O)cc1C(NC(C)=O)CC2` (stereo not given), the GI50 in assay [1] was 0.252 µM; in [2] it was 2.26 µM (inactive); in [3], 0.0187 µM (active); in assay [4] it was 0.014 µM (active); in [5], 0.398 µM (active); in [6] it was < 0.215 µM (active). Also, the GI50 in assay [7] is < 0.015 µM (active); in [8], 0.0179 µM (active); in assay [9], 0.0208 µM (active); in assay [10] it was 0.0468 µM (active); in assay [11], 0.0123 µM (active); in assay [12] it was 0.0176 µM (active). Besides, the GI50 is 0.0156 µM (active) in assay [13]; 0.168 µM (active) in [14]; 0.0141 µM (active) in [15]; < 0.01 µM (active) in assay [16]; < 0.0122 µM (active) in assay [17]; 0.0286 µM (active) in assay [18]. Further, the GI50 in assay [19] was < 0.01 µM (active); in assay [20], 0.0218 µM (active).

In the case of `COC(=O)[C@H](C)NC(=O)[C@H](CSC)N1C(=O)N[C@@H](C(C)C)C1=O`, the GI50 in assay [1] was more than 100 µM; in assay [2], > 100 µM (inactive); in assay [3], > 100 µM (inactive); in [4], > 100 µM (inactive); in [5], > 100 µM (inactive); in assay [6] it was > 100 µM (inactive). Further, the GI50 is 49 µM (inactive) in assay [7]; 32.7 µM (inactive) in assay [8]; > 100 µM (inactive) in assay [9]; 71.3 µM (inactive) in assay [10]; > 100 µM (inactive) in assay [11]; > 100 µM (inactive) in assay [12]. The GI50 in [13], in assay [14], in [15], in assay [16], in [17] and in assay [18] was > 100 µM (inactive) in each case. Moreover, the GI50 in assay [19] and in [20] was > 100 µM (inactive) in each case.

As for `O=C(Nc1ccccc1)N(CCCCN(Cc1ccccc1)C(=O)Nc1ccccc1)Cc1ccccc1`, the GI50 in assay [1] is more than 100 µM; in [2], > 100 µM (inactive); in assay [3], > 100 µM (inactive); in assay [4], 95.3 µM (inactive); in [5], > 100 µM (inactive); in assay [6], > 100 µM (inactive). The GI50 in assay [7] was > 100 µM (inactive); in assay [8], 52.7 µM (inactive); in [9], > 100 µM (inactive); in assay [10], > 100 µM (inactive); in [11], > 100 µM (inactive); in assay [12], > 100 µM (inactive). Besides, the GI50 in assay [13] is > 100 µM (inactive); in assay [14], 28.8 µM (inactive); in [15], > 100 µM (inactive); in assay [16], 92 µM (inactive); in assay [17], > 100 µM (inactive); in assay [18], > 100 µM (inactive). Moreover, the GI50 in [19] was 44.3 µM (inactive); in [20], > 100 µM (inactive).

`c1ccc2c(c1)CCc1[nH]c3c(c1-2)-c1ccccc1CC3`: the GI50 in [1] is 48.1 µM; in assay [2], > 100 µM (inactive); in assay [3], > 100 µM (inactive); in assay [4] it was 96.4 µM (inactive); in [5], > 100 µM (inactive); in assay [6], > 100 µM (inactive). In addition, the GI50 in assay [7] was > 100 µM (inactive); in [8], 35.6 µM (inactive); in [9], > 100 µM (inactive); in [10], 39.9 µM (inactive); in assay [11], > 100 µM (inactive); in assay [12], 36 µM (inactive). The GI50 in assay [13] is > 100 µM (inactive); in assay [14], 77.1 µM (inactive); in assay [15] it was 43.1 µM (inactive); in [16], 39.9 µM (inactive); in assay [17], 98.4 µM (inactive); in assay [18], > 100 µM (inactive). In addition, the GI50 in assay [19] is 38.7 µM (inactive); in assay [20], 35 µM (inactive).

Consider `CCC(C)C(NC(=O)c1c2ccccc2nc2ccccc12)C(=O)O` (stereo not given), for which the GI50 is 41 µM in assay [1]; > 100 µM (inactive) in assay [2]; 83 µM (inactive) in assay [3]; > 100 µM (inactive) in assay [4]; > 100 µM (inactive) in assay [5]; > 100 µM (inactive) in [6]. The GI50 in assay [7] is 51.2 µM (inactive); in [8], > 100 µM (inactive); in assay [9], 86.5 µM (inactive); in assay [10] it was > 100 µM (inactive); in [11], > 100 µM (inactive); in assay [12] it was > 100 µM (inactive). Further, the GI50 was > 100 µM (inactive) in assay [13]; 77.3 µM (inactive) in assay [14]; > 100 µM (inactive) in assay [15]; 98.9 µM (inactive) in [16]; > 100 µM (inactive) in [17]; > 100 µM (inactive) in assay [18]. Moreover, the GI50 in [19] and in [20] was > 100 µM (inactive) in each case.

With `CC1(O)/C(=N/O)CC2CC1C2(C)C` (stereo not given), the GI50 in assay [1] is more than 100 µM; in [2] it was > 100 µM (inactive); in [3], > 100 µM (inactive); in [4], > 100 µM (inactive); in assay [5], > 100 µM (inactive); in assay [6], > 100 µM (inactive). Further, the GI50 in assay [7], in assay [8], in [9], in assay [10], in assay [11] and in assay [12] was > 100 µM (inactive) in each case. The GI50 in [13], in [14], in assay [15], in [16], in assay [17] and in assay [18] was > 100 µM (inactive) each time. Further, the GI50 in [19] is > 10 µM (inactive); in assay [20], > 100 µM (inactive).

With `COc1ccc(/N=c2\ssc(C(=S)Nc3ccc(OC)cc3)c2S)cc1`, the GI50 in assay [1] was 64.9 µM; in assay [2], > 100 µM (inactive); in [3], > 100 µM (inactive); in assay [4], > 100 µM (inactive); in [5], > 100 µM (inactive); in assay [6], 6.68 µM (inactive). The GI50 in assay [7] is > 100 µM (inactive); in assay [8], > 100 µM (inactive); in [9], > 100 µM (inactive); in [10], 39.6 µM (inactive); in [11] it was > 100 µM (inactive); in [12] it was 32.4 µM (inactive). Moreover, the GI50 was > 100 µM (inactive) in assay [13]; 83.6 µM (inactive) in assay [14]; > 100 µM (inactive) in assay [15]; 69 µM (inactive) in [16]; > 100 µM (inactive) in assay [17]; 97.5 µM (inactive) in assay [18]. For the same compound, the GI50 is > 100 µM (inactive) in assay [19] and 71 µM (inactive) in [20].

As to `CCN(CC)CCNc1ccc2nnn3c4ccc([N+](=O)[O-])cc4c(=O)c1c23`, the GI50 in assay [1] is 6.93 µM; in [2] it was 13.2 µM (inactive); in assay [3] it was 10.8 µM (inactive); in [4], 8.15 µM (inactive); in assay [5] it was 3.28 µM (inactive); in assay [6], 14 µM (inactive). Also, the GI50 was 9.12 µM (inactive) in assay [7]; 2.13 µM (inactive) in assay [8]; 5.38 µM (inactive) in assay [9]; 3.93 µM (inactive) in assay [10]; 9.75 µM (inactive) in [11]; 25.8 µM (inactive) in assay [12]. The GI50 in [13] is > 36.4 µM (inactive); in assay [14] it was 4.47 µM (inactive); in [15], 6.15 µM (inactive); in [16] it was 3.67 µM (inactive); in [17], 3 µM (inactive); in [18], 4.76 µM (inactive). Besides, the GI50 in [19] was 5.01 µM (inactive); in assay [20], 11.8 µM (inactive).

On to `CC(=O)/N=C1\C=C(NC(C)=O)C(=O)c2ccccc21`, for which the GI50 in assay [1] was 1.89 µM; in assay [2] it was 2.13 µM (inactive); in assay [3], 0.451 µM (active); in assay [4] it was 1.33 µM (inactive); in assay [5] it was 1.45 µM (inactive); in assay [6], 3 µM (inactive). Besides, the GI50 is 1.93 µM (inactive) in assay [7]; 1.98 µM (inactive) in assay [8]; 1.71 µM (inactive) in assay [9]; 5.08 µM (inactive) in assay [10]; 3.09 µM (inactive) in [11]; 17.7 µM (inactive) in assay [12]. The GI50 in [13] was 2.35 µM (inactive); in assay [14], 4.62 µM (inactive); in [15], 1.39 µM (inactive); in assay [16], 1.76 µM (inactive); in assay [17], 1.93 µM (inactive); in [18], 2.21 µM (inactive). For the same compound, the GI50 in assay [19] is 1.52 µM (inactive); in assay [20], 1.73 µM (inactive).

For `O=C(Nc1ccn(C2CC(I)C(COC(c3ccccc3)(c3ccccc3)c3ccccc3)O2)c(=O)n1)c1ccccc1` (stereo not given), the GI50 was 8.73 µM in assay [1]; > 21.5 µM (inactive) in [2]; 6.89 µM (inactive) in assay [3]; 11 µM (inactive) in assay [4]; 12.7 µM (inactive) in assay [5]; 11.4 µM (inactive) in assay [6]. Further, the GI50 was 7.78 µM (inactive) in assay [7]; 4.13 µM (inactive) in assay [8]; 13.3 µM (inactive) in assay [9]; 7.11 µM (inactive) in assay [10]; > 10 µM (inactive) in assay [11]; 12.6 µM (inactive) in assay [12]. The GI50 in [13] is 11.2 µM (inactive); in [14], 7.83 µM (inactive); in assay [15], 7.26 µM (inactive); in assay [16], 4.86 µM (inactive); in assay [17] it was 14 µM (inactive); in [18], 9.25 µM (inactive). In addition, the GI50 is 0.6 µM (active) in assay [19] and 10.8 µM (inactive) in assay [20].
